Data reported in patent US6458382B1, “Nucleic acid transfer complexes” (Mirus Corporation, priority 1999, dated 2002).

What was measured:
Sf9 cells = assay: Transfection of Sf9 cells, β-galactosidase reporter (Examples 3, 4); type: cell-based, Spodoptera frugiperda; details: for Efficiency of detergent added to DOTAP/neutral lipid reagent, in words: transfecting Sf9 cells
Protocol: Sf21 (Spodoptera frugiperda pupal ovarian cells) cells were maintained in TC-100 medium, and High Five or BTI-TN-5BI-4 (Trichoplusia ni embryonic ovarian cells) cells were maintained in Ex-Cell medium at 27° C. in an atmosphere of 5% CO2 in air. S2 (Drosophila melanogaster embryonic cells) were maintained in Shields and Sang M3 medium supplemented with 5% FCS at 25° C. The cells were seeded in a 6-well plate (35 mm culture dishes) 24 h before the transfection at 70% confluence. Before transfection, the cells were washed once or twice with serum-free medium, and placed in 2 ml serum-free medium per 35-mm dish. The liposomes were diluted in 0.15 ml of serum-free medium. Following a 5 minute incubation at room temperature, two μg of plasmid DNA (containing the luciferase or β-galactosidase reporter genes described below) was added, followed by a 5 minute incubation at room temperature prior to being added to the cells in the culture dish. The cells were incubated under the appropriate conditions. After four hours, the transfection mixture was removed and replaced with 2 ml of regular culture medium. […]
The firefly luciferase and E. coli β-galactosidase reporter genes were used to determine the efficiency of DNA transfer quantitatively. […]
For determination of luciferase activity, cells were lysed by the addition of 200 μl of lysis buffer (0.1% Triton X-100, 0.1M K-phosphate, 1 mM DTT, pH 7.8). Ten μl of the cellular extract were analyzed for luciferase activity, using the Enhanced Luciferase Assay kit (Mirus). For determination of β-galactosidase activity, the cells were lysed by the addition of 200 μl of lysis buffer (0.1% Triton X-100, 0.1M K-phosphate, 1 mM DTT, pH 7.8). β-Galactosidase activity was determined using a chemiluminescent assay (Tropix).
Two μg of the β-galactosidase expression vector pIE1HR5/LacZ were transfected into Sf9 cells using TRANSIT-INSECTA, Reagent C (CELLFECTIN from Life Technologies) and Reagent I (INSECTIN-PLUS from Invitrogen). […] Reporter gene expression was determined after 2 days using a chemiluminescent assay (Tropix). […]

insect cells = assay: Transfection of insect cells with DOTAP-based reagent; details: insect cell lines grown in vitro (e.g., Sf9, Sf21, High Five, S2)
From the text: Addition of detergents increases the efficiency of a transfection reagent. However, the optimal type and amount of detergent vary for different transfection reagents and target cell types. […] In a typical transfection reagent, the DOTAP is mixed with a neutral lipid (e.g., DOPE, cholesterol) to form a liposome. […] Optimal enhancement with DLPE was obtained over a range of 1-10% (weight percentage of total composition of DOTAP, DOPE, and neutral lipid).

[1] = background statement on prior art; cited from earlier work

CCCCCCCCCCCC(=O)OC[C@H](COP(=O)([O-])OCC[N+](C)(C)C)OC(=O)CCCCCCCCCCC [DLPC, dilauroylphosphatidylcholine]
Efficiency of detergent added to DOTAP/neutral lipid reagent, in words (Sf9 cells): more efficient than addition of CHAPS

CCCCCCCCCCCC(=O)OC[C@H](COP(=O)(O)OCCN)OC(=O)CCCCCCCCCCC [DLPE, dilauroyl phosphatidylethanolamine]
Efficiency of detergent added to DOTAP/neutral lipid reagent, in words (Sf9 cells): more efficient than addition of CHAPS | Range of DLPE giving optimal enhancement of transfection efficiency (Sf9 cells; weight percentage of total composition of DOTAP, DOPE, and neutral lipid): 1-10%

CCCCCCCC/C=C\CCCCCCCC(=O)OCC(C[N+](C)(C)C)OC(=O)CCCCCCC/C=C\CCCCCCCC (centres unmarked) [DOTAP, 1,2-bis(oleoyloxy)-3-(4′-trimethylammonio)propane]
Transfection efficiency for insect cells, in words (insect cells): efficient transfection reagent

CCCCCCCCCCCCCCCCCCN [Stearylamine]
cytotoxicity, in words [1]: great cytotoxicity
